We go through 20 molecules from EP2818471A1, “Nitrogen bicyclic compounds as inhibitors for Scyl1 and Grk5” (Max-Planck-Gesellschaft zur Förderung der Wissenschaften …, priority 2013, dated 2014).

In data set [1] the test system is beta-TC6 cell system. Description: Comparison of insulin release with commercially available inhibitors, mouse/rat insulin ELISA. The note with it: 2 h; for effect on insulin release: concentration not given. It is filed as cell-based. The procedure:
Based on literature references, several commercially available inhibitors were compared with compounds according to the invention. […] Cells were cultured for 24 h before treated with the inventive compounds and control inhibitors for 2 h at 37 °C and 5 % (v/v) CO2. Insulin in the supernatant was detected by mouse/rat insulin ELISA.
For orientation: In an ELISA, binding on a coated surface is turned into a signal by an enzyme label.

For data set [2], the system named is beta-TC6 cells. Description: Insulin HTRF assay, relative activity Ar normalized to sunitinib. The note with it: Mus musculus, normalized to positive control sunitinib (5 µM = 100%), Table 10. It is filed as cell-based. In short, it runs like this: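 beta-TC6 cells (15k/well) were seeded for 24 or 48 h, washed and exposed to test compound or sunitinib (5 µM f.c.) in induction buffer with 0.5% DMSO for 2, 3 or 4 h at 37°C. Secreted insulin in the supernatant was measured by two-antibody HTRF after 120 min at RT. Ar = (V − 0% control)/(100% control − 0% control) × 100.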
(In general: In TR-FRET formats the signal depends on donor and acceptor labels being close together.)

The subject of data set [3] is C2C12 cells. Description: 2-NBDG glucose uptake by flow cytometry. The note with it: C2C12, 1 h compound treatment; Figure 10. For orientation: A flow cytometer gives signals particle by particle.
Experimental: Furthermore, as internal controls, samples of glucose free media, respectively glucose free media with test compound, were tested. Subsequently, cells were washed, trypsinized and harvested in ice-cold PBS before centrifuged at 1.6 x10^3 rpm at 4°C. Cells were analyzed by flow cytometry (FACS Calibur, BD Bioscience, respectively a BD Accuri® C6 Flow Cytometer).
To investigate the impact of the Grk5 inhibitors on Glucose uptake, cells were cultured 1 h in glucose free media supplied with 100 µM 2-NBDG at 37 °C and 5 % (v/v) CO2. Furthermore, as internal controls, samples of glucose free media, respectively glucose free media with test compounds, were measured. Fluorescence was analyzed by flow cytometer (FACS Calibur, BD Bioscience, respectively a BD Accuri® C6 Flow Cytometer).
In data set [4] the test system is beta-TC6 cells. Description: Insulin release in low glucose medium, rat/mouse insulin ELISA. The note with it: low glucose 1.125 mM (20 mg/dL), 2 h, relative to DMSO control; Example 6, Figure 5. It is filed as cell-based. The procedure:
In order to measure the insulin released upon compound treatment beta-TC6 insulinoma (mouse) and RIN-T2B-5AH (rat islet tumor subclone) cells were washed and incubated for 2 h in high (4.5 g/L) or low (1.125 g/L) glucose media at 37 °C. After incubation, the supernatant of the beta-TC6 insulinoma cells was diluted 1:20, whereas the supernatants of the RIN-T2B-5AH were diluted 1:10. The insulin release was measured with rat/mouse insulin ELISA (Merck Millipore Darmstadt, Cat. # EZRMI-13K) by following the manufacture's protocol. The enzyme activity of the horseradish peroxidase of the immobilized biotinylated antibodies was monitored spectrophotometrically by the increased absorbency at 490 nm, and corrected by the absorbency at 610 nm.
Hypoglycemia can cause impairment of cognitive function, motoric control or even consciousness. […] Therefore, we verified the glucose dependent insulin release in beta-TC6 cells using media with 1.125 mM (20 mg/dL) glucose. Cells were cultured for 24 h in a 96-well plate, washed with PBS and then appropriate media was replaced for 2 h at 37°C and 5 % (v/v) CO2. […] The enzyme activity of the horseradish peroxidase of the immobilized biotinylated antibodies was monitored spectrophotometrically by the increased absorbency at 490 nm, and corrected by the absorbency at 610 nm. […]

The subject of data set [5] is beta-TC6. Description: MTT cytotoxicity assay (cell viability and proliferation). It is filed as cell-based, mouse. The note with it: beta-TC6, 72 h treatment, concentrations up to 10 µM. The procedure: Using a MTT approach, we determined the effect on cell viability and proliferation of beta-TC6 and C2C12 cells to display potential cytotoxicity of the compounds according to the invention in vitro after a 72 h treatment.
For MTT (3-(4,5-dimethylthiazol-2-yl)-2,5-diphenyl tetrazolium bromide) transformation, 1/5 of total volume of a 5 mg/mL MTT stock solution was added to the cells as well as control wells and incubated at 37 °C, 5 % CO2 (v/v) for 1 h. Then 1/2 of total volume of MTT-stop solution was added and plates were incubated overnight in the dark at 25 °C. The optical density (OD) was measured using a multiwell spectrophotometer at a wavelength of 570 nm.

Data set [6] has as its system beta-TC6 cells. Description: Insulin release in high glucose medium, rat/mouse insulin ELISA. Conditions: Mus musculus, Beta-TC6, 2 h, high glucose (4.5 g/L) DMEM, Example 9, Figure 6, ± SEM, read-out: increase of insulin release. It counts as cell-based. How it is done:
Cells were cultured overnight, washed with PBS and then treated with 5 µM of test compounds as well as non-inhibitor controls for 2 h in a high glucose (4.5 g/L) DMEM at 37°C and 5 % (v/v) CO2. Release of insulin was detected using a rat/mouse insulin ELISA.
After incubation, the supernatant of the beta-TC6 insulinoma cells was diluted 1:20, whereas the supernatants of the RIN-T2B-5AH were diluted 1:10. The insulin release was measured with rat/mouse insulin ELISA (Merck Millipore Darmstadt, Cat. # EZRMI-13K) by following the manufacture's protocol. The enzyme activity of the horseradish peroxidase of the immobilized biotinylated antibodies was monitored spectrophotometrically by the increased absorbency at 490 nm, and corrected by the absorbency at 610 nm.
Afterwards, the supernatant was analyzed for insulin using the rat/mouse insulin ELISA (Merck Millipore Darmstadt, Cat. # EZRMI-13K) by following the manufacture's protocol..
Cells were treated for 2 h in a high glucose (4.5 g/L) DMEM media at 37°C and 5 % (v/v) CO2. Insulin release was analyzed using the rat/mouse insulin ELISA.

Setting [7] is: Mus musculus, Beta-TC6, 5µM, DMSO = 0, Table 9.

`COc1ccc(Cl)cc1C(=O)NCCc1ccc(S(=O)(=O)NC(=O)NC2CCCCC2)cc1` [Glibenclamide, reference compound]: the “effect on insulin release” value in data set [1] is “no effect”.

Molecule `O=C1C(Cl)=C(N2C(=O)CCC2=O)C(=O)c2ccccc21` [MEK, reference compound] gave an activation at 10 µM in data set [1] (Mus musculus, Beta-TC6, 10µM, DMSO = 0, Table 9) of 67.3%.

One may read the Emax as the size of the effect at its maximum, as opposed to the concentration needed. In data set [1] (setting [7]), `NC(=O)c1ccc(-c2cnc3ccc(Cc4ccccc4)nn23)cc1` [compound 2, 4-(6-benzylimidazo[1,2-b]pyridazin-3-yl)benzamide] gave an activation at 5 µM of 65.7%. The molecule further gave a maximal effect (Emax) in data set [2] of 20 to 50%. For the same molecule, the “uptake of 2-NBDG compared with negative control background” value in data set [3] is “significantly increased uptake of 2-NBDG”.

Take `CCN(CC)CCNC(=O)c1c(C)[nH]c(/C=C2\C(=O)Nc3ccc(F)cc32)c1C` [Sunitinib, reference compound]: the “Insulin Release [%]” value in data set [1] (5µM, DMSO = 0, Table 9, listed as Sutent) is 93.35%. This molecule showed an activation at 5 µM in data set [1] (setting [7]) of 93.3 ± 14.4%. Moreover, the insulin release in data set [4] stood at 0.77 ± 0.03. Besides, in data set [5], the toxic effect result was “toxic in lower concentrations”.

Take `CC(=O)Nc1cc(-c2cccc(C(=O)NCCO)c2)cn2c(-c3ccc(F)cc3)cnc12` [Cpd c1, reference compound]: the activation at 5 µM in data set [6] was found to be 1.3 ± 0.3%.

`CCCCNC(=O)NS(=O)(=O)c1ccc(C)cc1` [Tolbutamide, reference compound]: the “effect on insulin release” value in data set [1] is listed as “no effect”.

In data set [2], `COc1ccc(-c2cn3c(-c4cccc(O)c4)cnc3cn2)cn1` [compound 369, 3-[6-(6-methoxy-3-pyridyl)imidazo[1,2-a]pyrazin-3-yl]phenol] returned a maximal response (Emax) of 20 to 50%.

For `CN(C)CCCNC(=O)c1ccc(-c2ccc3nnc(-c4cccc(C(F)(F)F)c4)n3c2)cc1` [compound 211, N-[3-(dimethylamino)propyl]-4-[3-[3-(trifluoromethyl)phenyl]-[1,2,4]triazolo[4,3-a]pyridin-6-yl]benzamide], the Emax in data set [2] lay within 20 to 50%.

`c1csc(-c2cn3c(-c4ccsc4)cnc3cn2)c1` [compound 322, 6-(2-thienyl)-3-(3-thienyl)imidazo[1,2-a]pyrazine]: the Emax in data set [2] is 50 to 100%.

For `Clc1cccc(-c2nnc3ccc(-c4ccc5c(c4)OCO5)cn23)c1` [compound 198, 6-(1,3-benzodioxol-5-yl)-3-(3-chlorophenyl)-[1,2,4]triazolo[4,3-a]pyridine], in data set [2], the Emax lay in the range of 50 to 100%.

In data set [2], `CC(C(=O)Nc1cnc2cnc(-c3cccc([N+](=O)[O-])c3)cn12)c1ccccc1` (stereo not shown) [compound 271, N-[6-(3-nitrophenyl)imidazo[1,2-a]pyrazin-3-yl]-2-phenyl-propanamide] gave an Emax of 20 to 50%.

For `N#Cc1ccc(-c2cnc3cnc(-c4ccc(Cl)cc4)cn23)cc1` [compound 337, 4-[6-(4-chlorophenyl)imidazo[1,2-a]pyrazin-3-yl]benzonitrile], the Emax in data set [2] lay within 50 to 100%.

For `O=C(NCCO)c1ccc(-c2cn3c(-c4cccs4)cnc3cn2)cc1` [compound 423, N-(2-hydroxyethyl)-4-[3-(2-thienyl)imidazo[1,2-a]pyrazin-6-yl]benzamide], the Emax in data set [2] fell in the range of 10 to 20%.

Molecule `FC(F)(F)Oc1ccc(-c2cn3c(-c4cccs4)cnc3cn2)cc1` [compound 418, 3-(2-thienyl)-6-[4-(trifluoromethoxy)phenyl]imidazo[1,2-a]pyrazine] had an Emax in data set [2] of 20 to 50%.

In data set [2], `COc1cc(OC)cc(-c2cn3c(-c4cccc(N(C)C)c4)cnc3cn2)c1` [compound 346, 3-[6-(3,5-dimethoxyphenyl)imidazo[1,2-a]pyrazin-3-yl]-N,N-dimethyl-aniline] yielded an Emax of 20 to 50%.

Take `Fc1ccc(-c2ccc3nnc(-c4cscn4)n3c2)cc1Cl` [compound 228, 4-[6-(3-chloro-4-fluoro-phenyl)-[1,2,4]triazolo[4,3-a]pyridin-3-yl]thiazole]: the Emax in data set [2] lay in the range of 20 to 50%.

The molecule `CN(C)CCCOc1ccc(-c2nnc3ccc(C#Cc4ccc(C(=O)N(C)C)cc4)cn23)cc1` [compound 238, 4-[2-[3-[4-[3-(dimethylamino)propoxy]phenyl]-[1,2,4]triazolo[4,3-a]pyridin-6-yl]ethynyl]-N,N-dimethyl-benzamide] came in with an Emax in data set [2] of 20 to 50%.

Take `COc1cccc(-c2cn3c(-c4cccc(O)c4)cnc3cn2)c1F` [compound 372, 3-[6-(2-fluoro-3-methoxy-phenyl)imidazo[1,2-a]pyrazin-3-yl]phenol]: the Emax in data set [2] was 20 to 50%.

In turn, `Clc1ccccc1-c1ccc2nnc(-c3cscn3)n2c1` [compound 233, 4-[6-(2-chlorophenyl)-[1,2,4]triazolo[4,3-a]pyridin-3-yl]thiazole] yielded an Emax in data set [2] of 50 to 100%.

In data set [2], `COc1cccc(CC(=O)Nc2cnc3cnc(-c4ccccc4CN(C)C)cn23)c1` [compound 252, N-[6-[2-(dimethylaminomethyl)phenyl]imidazo[1,2-a]pyrazin-3-yl]-2-(3-methoxyphenyl)acetamide] came in with an Emax of 20 to 50%.
